Key:
myeloma cells = details: independent of their p53 status; cited from earlier work
[1] = test system: cells that over express B-cell lymphoma 2 (Bcl-2); details: cells that over express Bcl-2; cited from earlier work
xenograft tumor models = details: variety of xenograft tumor models; cited from earlier work
[2] = test system: relapsed or refractory multiple myeloma; assay: APEX phase 3 trial (039); type: in vivo, human; details: for Median duration of response / Median time to response / One-year survival / complete response / complete response plus near-complete response / complete response, number of patients: 039; for response rate (complete plus partial response (CR+PR)): 039, EBMT criteria; for CR + PR + MR, (%) / Complete Response, (%) / Minor Response, (%) / Near CR: IF+, (%) / No Change, (%) / Not Evaluable, (%) / Overall Response Rate (CR + PR), (%) / Partial Response, (%) / Progressive Disease, (%) / SWOG Remission, (%): best confirmed response, N = 627
Text: (§1) Dexamethasone is a synthetic adrenocorticosteroid, CAS Registry No. 312-93-6, administered as tablets (DECADRON® Merck & Co., Inc.). 024: The CREST phase 2 trial (024) of either relapsed or refractory disease (subjects with first relapse, Jagannath et al. (2004) Br. J. Haematol. 127:165-172). […] 025: The SUMMIT phase 2 trial of patients with relapsed and refractory myeloma (subjects with second or greater relapse and refractory to their last prior therapy, Richardson P G, et al. (2003) N. Engl. J. Med. 348:2609-2617). […] Patients who received dexamethasone were treated for a maximum of 280 days by the following method: received up to four 5-week treatment cycles, followed by up to five 4-week treatment cycles. Within each 5-week treatment cycle, the patient received dexamethasone 40 mg/day PO, once daily on Days 1 to 4, 9 to 12, and 17 to 20 of a 35-day cycle. Within each 4-week treatment cycle, the patient received dexamethasone 40 mg/day PO once daily on Days 1 to 4 of a 28 day cycle. 040: Companion trial to 039 for patients who had more than 3 prior therapies. […] An additional 240 patients not from the −039 study, but who received at least 4 prior therapies also enrolled in this study.
The following section presents more detailed information on the −039 trial. During the study, disease response was assessed according to the European Group for Blood and Marrow Transplant (EBMT) criteria as presented in Table 4.
Response and date of disease progression was determined by computer algorithm that integrated data from a central laboratory and case report forms from each clinical site, according to the Blade criteria (Table 4). […] See Richardson et al., supra.
Disease progression was determined by Blade criteria as described in Table 4 and above. […] The date of progression was determined by computer algorithm. P-value from log-rank test adjusted by actual randomization factors. See Richardson et al., supra.

[3] = test system: relapsed and refractory myeloma; assay: SUMMIT phase 2 trial (025); type: in vivo, human; details: Study 025, bortezomib alone
Text: as §1

[4] = test system: relapsed multiple myeloma; assay: CREST phase 2 trial (024); type: in vivo, human
Text: as §1

[5] = test system: relapsed multiple myeloma; assay: Response in pharmacogenomic portion of the studies; type: in vivo, human; details: for CR, number of patients / IE, number of patients / MR, number of patients / NC, number of patients / PD, number of patients / PR, number of patients: pharmacogenomic patients, study 039; for CR+PR rate / overall response rate: pharmacogenomic set of patients
Text: Patient samples and response criteria from patients participating in these studies, as well as the following additional studies described below were sought for use in pharmacogenomic analyses to identify markers associated with patient survival. The samples were derived from the trials as described in Table 3 and in the following paragraphs.
For those patients who participated in the pharmacogenomic portion of the study, Table 6 summarizes the response rates and Table 7 summarizes the patients evaluated for survival. […]

[6] = test system: nuclear factor-κB (NF-κB) activation; details: cited from earlier work
[7] = difference in rates, bortezomib vs dexamethasone
[8] = difference in response rates, bortezomib vs dexamethasone

CC(C)C[C@H](NC(=O)[C@H](Cc1ccccc1)NC(=O)c1cnccn1)B(O)O [bortezomib, N (pyrazine)carbonyl-L-phenylalanine-L-leucine boronic acid]
cytotoxicity to myeloma cells in culture (myeloma cells): directly cytotoxic
apoptosis [1]: induces apoptosis
cytotoxic activity in xenograft tumor models (xenograft tumor models): cytotoxic activity
Median duration of response [2]: 8 months
Median time to response [2]: 43 days
One-year survival [2]: 80%
complete response [2]: 6%
complete response plus near-complete response [2]: 13%
complete response, number of patients [2]: 20 patients
response rate (complete plus partial response (CR+PR)) [2]: 38%
CR + PR + MR, (%) [2]: (46) %
Complete Response, (%) [2]: (6) %
Minor Response, (%) [2]: (8) %
Near CR: IF+, (%) [2]: (7) %
No Change, (%) [2]: (43) %
Not Evaluable, (%) [2]: (3) %
Overall Response Rate (CR + PR), (%) [2]: (38) %
Partial Response, (%) [2]: (32) %
Progressive Disease, (%) [2]: (7) %
SWOG Remission, (%) [2]: (15) %
No Change, Difference [2, 7]: −0.04
Not Evaluable, Difference [2, 7]: −0.01
Progressive Disease, Difference [2, 7]: −0.06
CR + PR + MR, Difference [2, 8]: 0.12
Complete Response, Difference [2, 8]: 0.06
Minor Response, Difference [2, 8]: −0.09
Near CR: IF+, Difference [2, 8]: 0.06
Overall Response Rate (CR + PR), Difference [2, 8]: 0.20
Partial Response, Difference [2, 8]: 0.15
SWOG Remission, Difference [2, 8]: 0.09
decrease in risk of death ([2]; first year after enrollment, bortezomib group vs dexamethasone): 41%
CR+PR rate [3]: 27%
overall response rate (CR+PR+minimal response (MR)) [3]: 35%
CR+PR, number of patients ([3]; of 193 patients): 53 patients
overall response (CR+PR+MR), number of patients ([3]; of 193 patients): 67 patients
complete response (CR)+partial response (PR) rate ([4]; Study 024, bortezomib 1.0 mg/m^2): 30%
complete response (CR)+partial response (PR) rate ([4]; Study 024, bortezomib 1.3 mg/m^2): 38%
CR, number of patients [5]: 5
IE, number of patients [5]: 9
MR, number of patients [5]: 5
NC, number of patients [5]: 19
PD, number of patients [5]: 13
PR, number of patients [5]: 25
CR+PR rate [5]: 32%
overall response rate [5]: 42.3%
NF-κB activation [6]: inhibits

C[C@@H]1C[C@H]2[C@@H]3CCC4=CC(=O)C=C[C@]4(C)[C@@]3(F)[C@@H](O)C[C@]2(C)[C@@]1(O)C(=O)CO [dexamethasone, Dexamethasone]
Median duration of response [2]: 5.6 months
Median time to response [2]: 43 days
One-year survival [2]: 66%
complete response [2]: < 1%
complete response plus near-complete response [2]: 2%
complete response, number of patients [2]: 2 patients
response rate (complete plus partial response (CR+PR)) [2]: 18%
CR + PR + MR, (%) [2]: (35) %
Complete Response, (%) [2]: (<1) %
Minor Response, (%) [2]: (17) %
Near CR: IF+, (%) [2]: (<1) %
No Change, (%) [2]: (48) %
Not Evaluable, (%) [2]: (4) %
Overall Response Rate (CR + PR), (%) [2]: (18) %
Partial Response, (%) [2]: (17) %
Progressive Disease, (%) [2]: (13) %
SWOG Remission, (%) [2]: (5) %
CR, number of patients [5]: 1
IE, number of patients [5]: 6
MR, number of patients [5]: 11
NC, number of patients [5]: 16
PD, number of patients [5]: 22
PR, number of patients [5]: 13
CR+PR rate [5]: 22.2%
overall response rate [5]: 39.7%

Reference: US20160312309A1 (Millennium Pharmaceuticals, Inc., priority 2008, published 2016)
